Measured values as given in paper PMC7074166, “Screening for Small Molecule Modulators of Trypanosoma brucei Hsp70 Chaperone Activity Based upon Alcyonarian Coral-Derived Natural Products” (Marine Drugs, 2020).
Like-named read-outs stand apart in the source and are kept apart here.

Assays:
[1] = tested on: bloodstream form T. b. brucei parasites; test: Resazurin-based anti-trypanosomal assay on bloodstream form T. b. brucei parasites; assay type: cell-based, Trypanosoma brucei brucei; conditions: for IC50: Trypanosoma brucei
Protocol: Bloodstream form T. b. brucei Lister 927 variant 221 strain parasites were cultured in filter sterilized complete Iscoves Modified Dulbeccos Media (IMDM) based HM1-9 medium (IMDM base powder, […] sodium bicarbonate, 1 mM hypoxanthine, 1 mM sodium pyruvate, 0.16 mM thymidine, 0.05 mM bathocuprone sulphate acid, 10% (v/v) heat inactivated foetal bovine serum, 1.5 mM L-cysteine, 0.2 mM β-mercaptoethanol, pH 7.5) in a humidified chamber at 37 °C with an atmosphere of 5% CO2. Parasite growth was monitored using a Neubauer haemocytometer to count the cell number, after which cells were diluted, according to their density, in the described pre-warmed media.
All compounds of interest were resuspended to stocks of 30 mM in DMSO and stored at −80 °C prior to use in in vitro experiments. For assessment of anti-trypanosomal activity, compounds were added to in vitro cultures of bloodstream form T. b. brucei parasites (1 × 10^5 cells/mL) in 96-well plates at a fixed concentration of 20 μM. After an incubation period of 48 h, the number of parasites surviving drug exposure were determined using a resazurin-based cytotoxicity assay. Resazurin is an oxidation–reduction sensitive dye that is reduced by living cells to resorufin. Resorufin is a fluorophore (Excitation560/Emission590) and thus was quantified in a multi-well fluorescence plate reader. Results are expressed as % parasite viability—the resorufin fluorescence in small molecule-treated wells relative to untreated controls. Assessment of each small molecule was conducted in duplicate, with error bars representing standard deviation (SD). […] The compounds were added to in vitro cultures of bloodstream form T. b. brucei parasites (1 × 10^5 cells/mL) in 96-well plates in a 3-fold dilution series with 100 μM as the highest concentration. After an incubation period of 48 h, the number of parasites surviving drug exposure were determined as previously mentioned. The % parasite viability was determined as previously mentioned. The IC50 (the concentration of compound required to decrease cell viability of T. b. brucei parasites by 50% compared to those grown in the absence of the compound) values for each of the compounds were determined from a dose–response curve by non-linear regression generated using GraphPad Prism® (v. 7.0; San Diego, CA, USA) software. For comparative purposes, pentamidine at a fixed concentration of 1 μM was employed as a drug standard.

TbHsp70 / Tbj2 = molecular target: T1, TbHsp70 / Tbj2 (Trypanosoma brucei brucei, UniProt P11145); test: Tbj2-stimulated ATPase activity assay, TbHsp70; assay type: biochemical; conditions: TbHsp70, 150 μM, Figure 5A
T1 construct: His-tag; made in house; host or cells: Escherichia coli (Tbj2: E. coli BL21 (DE3))
Protocol: (§1) The determination of the ATPase activity of the Hsp70 proteins was performed using the high throughput colorimetric ATPase assay kit (Innova Biosciences, Cambridge, UK). This method enables the quantification of the inorganic phosphate (Pi) released from ATP hydrolysis by an enzyme. Briefly, the molecular chaperones were prepared in ATPase assay buffer (100 mM Tris-HCl, 7.5, 2 mM MgCl2, 50 mM KCl, 0.5 mM DTT) and incubated with ATP (0–2 mM) for 1 h at 37 °C. […] The samples containing Pi hydrolysed from ATP were incubated with the PiColorLock™ solution, which is a malachite green dye solution that in the presence of Pi changes absorbance due to generation of molybdate-phosphate complexes. The absorbance was measured at 595 nm using a Powerwave 96-well plate reader (BioTek Instruments, Inc., Winooski, VT, USA), and absorbance values were converted to phosphate concentrations using a standard curve of absorbance vs. phosphate concentration based on a set of Pi standards provided by the supplier assayed along with the samples. All samples were corrected for spontaneous breakdown of ATP observed in a control experiment in the absence of protein. The trypanosomal and human Hsp70s were used at 0.8 μM, and the J-proteins were used at 0.4 μM. An initial screen of the modulatory effects of the compounds on the ATPase activity of the Hsp70s was conducted using 300 μM of the compounds. Compounds identified to have a modulatory effect on the basal and J-protein-stimulated ATPase activity of Hsp70 were used at varying concentrations. The modulatory effect of the selected compounds on the basal and J-protein stimulated ATPase activity of the T. brucei Hsp70s was represented as fold change with the basal and J-protein stimulated ATPase activity of the Hsp70s taken as 1 respectively. These experiments were conducted on three independently purified batches of proteins, but due to limited availability of the selected compounds, each assay was conducted in duplicate on each batch of protein. In control reactions to evaluate the effect of DMSO on basal and J-protein stimulated ATPase activity of the Hsp70s, the solvent was added to a final concentration of 1% (v/v) in the assay. The assays were performed in duplicate on three independently purified batches of proteins.

TbHsp70.4 / Tbj2 = test: Tbj2-stimulated ATPase activity assay, TbHsp70.4; assay type: biochemical, Trypanosoma brucei; conditions: TbHsp70.4, 150 μM, Figure 5B
Protocol: as §1

[2] = T. b. brucei parasites, stated as bound, read-out: IC50 values
[3] = Table 1, T. b. brucei parasites cultured in vitro, 48 h, dose-response, read-out: IC50/μM
[4] = Table S1, 48 select compounds, T. b. brucei, 48 h, read-out: IC50/

T1 sequence (P11145 whole entry): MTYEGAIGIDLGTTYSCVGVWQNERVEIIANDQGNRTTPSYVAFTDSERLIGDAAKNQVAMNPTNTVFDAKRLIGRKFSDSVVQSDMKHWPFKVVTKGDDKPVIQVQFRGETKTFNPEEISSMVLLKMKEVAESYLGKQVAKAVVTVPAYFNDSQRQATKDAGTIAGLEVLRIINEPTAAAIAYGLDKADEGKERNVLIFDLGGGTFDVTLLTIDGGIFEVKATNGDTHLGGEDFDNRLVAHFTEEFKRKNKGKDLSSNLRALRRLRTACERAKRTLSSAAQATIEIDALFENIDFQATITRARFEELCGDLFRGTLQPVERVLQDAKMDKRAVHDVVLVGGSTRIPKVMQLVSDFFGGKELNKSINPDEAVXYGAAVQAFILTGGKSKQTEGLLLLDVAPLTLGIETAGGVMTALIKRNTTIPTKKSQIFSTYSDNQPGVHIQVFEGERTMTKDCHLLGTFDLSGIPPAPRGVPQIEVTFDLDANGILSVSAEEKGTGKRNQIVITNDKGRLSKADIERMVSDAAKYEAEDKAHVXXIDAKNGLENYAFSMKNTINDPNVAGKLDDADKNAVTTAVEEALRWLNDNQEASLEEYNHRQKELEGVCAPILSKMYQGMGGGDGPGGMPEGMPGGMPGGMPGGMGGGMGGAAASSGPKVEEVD

| Structure (SMILES) | IC50 [1, 2] [µM] | IC50 [1, 3] [µM] | IC50 [1, 4] [µM] | effect of order of addition (compound vs Tbj2) on inhibition of J-stimulated ATPase activity (TbHsp70 / Tbj2) | effect of order of addition (compound vs Tbj2) on inhibition of J-stimulated ATPase activity (TbHsp70.4 / Tbj2) | anti-trypanosomal activity (SAR statement) ([1]; T. b. brucei, screen at 20 μM) |
| --- | --- | --- | --- | --- | --- | --- |
| CC(C)=CCC/C(C)=C/CCC(C)=CCn1ccc(=N)n(CC=C(C)CC/C=C(\C)CCC=C(C)C)c1=O [Compound 63, 4-imino-1,3-bis((6E)-3,7,11-trimethyldodeca-2,6,10-trien-1-yl)-3,4-dihydropyrimidin-2(1H)-one] | < 7 | 2.1 | 2.05 | no significant difference | no significant difference |  |
| CC(C)=CCC/C(C)=C/CCC(C)=CCn1cnc2c1c(=O)[nH]c(=O)n2CC=C(C)CC/C=C(\C)CCC=C(C)C [Compound 28, 3,7-Bis((6E)-3,7,11-trimethyldodeca-2,6,10-trien-1-yl)-3,7-dihydro-1H-purine-2,6-dione] | < 7 | 1.2 | 1.15 | no significant difference | no significant difference |  |
| CC(C)=CCC/C(C)=C/Cn1cnc2c1c(=O)[nH]c(=O)n2C/C=C(\C)CCC=C(C)C [Compound 27, 3,7-Bis((E)-3,7-dimethylocta-2,6-dien-1-yl)-3,7-dihydro-1H-purine-2,6-dione] | < 7 | 2 |  | no significant difference | no significant difference |  |
| CC(C)=CCC/C(C)=C/CC/C(C)=C/Cn1cnc2c1c(=O)[nH]c(=O)n2C [Compound 31, 3-methyl-7-((2E,6E)-3,7,11-trimethyldodeca-2,6,10-trien-1-yl)-3,7-dihydro-1H-purine-2,6-dione] | < 7 | 1.9 | 1.91 | no significant difference | no significant difference |  |
| CC(C)=CCC/C(C)=C/Cn1cnc2ncnc(Cl)c21 [Compound 16, (E)-6-chloro-7-(3,7-dimethylocta-2,6-dien-1-yl)-7H-purine] |  | 11 | 11 |  |  |  |
| CC(C)=CCC/C(C)=C/CC/C(C)=C/CC/C(C)=C\Cn1cnc2c1c(=O)n(C)c(=O)n2C [Compound 36, 1,3-Dimethyl-7-((2Z,6E,10E)-3,7,11,15-tetramethylhexadeca-2,6,10,14-tetraen-1-yl)-3,7-dihydro-1H-purine-2,6-dione] |  | 5.2 | 5.17 |  |  |  |
| CC(C)=CCC/C(C)=C/CCC(C)=CCn1c(=O)[nH]c2c(=O)n(C)c(=O)n(C)c21 [Compound 44, 1,3-dimethyl-9-((6E)-3,7,11-trimethyldodeca-2,6,10-trien-1-yl)-7,9-dihydro-1H-purine-2,6,8(3H)-trione] |  | 16.6 | 16.6 |  |  |  |
| CC(C)=CCC/C(C)=C/CC/C(C)=C/CC/C(C)=C/Cn1cnc2c1c(=O)n(C)c(=O)n2C [Compound 37, 1,3-dimethyl-7-((2E,6E,10E)-3,7,11,15-tetramethylhexadeca-2,6,10,14-tetraen-1-yl)-3,7-dihydro-1H-purine-2,6-dione] |  | 21.6 |  |  |  |  |
| CC(C)=CCC/C(C)=C/CC/C(C)=C/CC/C(C)=C/Cn1cc(C)c(=O)[nH]c1=O [Compound 59, 5-Methyl-1-((2E,6E,10E)-3,7,11,15-tetramethylhexadeca-2,6,10,14-tetraen-1-yl)pyrimidine-2,4(1H,3H)-dione] |  | 15.8 |  |  |  |  |
| CC(C)=CCC/C(C)=C/CCC(C)=CCn1ccc(=O)[nH]c1=O [Compound 55, 1-((6E)-3,7,11-Trimethyldodeca-2,6,10-trien-1-yl)pyrimidine-2,4(1H,3H)-dione] |  | 16.5 | 16.5 |  |  |  |
| CC(=O)NC/C=C(\C)CC/C=C(\C)CCC=C(C)C [Compound 83, N-((2E,6E)-3,7,11-trimethyldodeca-2,6,10-trien-1-yl)acetamide] |  | 21.5 | 21.5 |  |  |  |
| CC(C)=CCC/C(C)=C/CC/C(C)=C/Cn1cnc2nncc-2c1O [Compound 49, 5-((2E,6E)-3,7,11-trimethyldodeca-2,6,10-trien-1-yl)-5H-pyrazolo[3,4-d]pyrimidin-4-ol] |  | 16.7 | 16.7 |  |  |  |
| CC(=O)NC/C=C(/C)CC/C=C(\C)CCC=C(C)C [Compound 82, N-((2Z,6E)-3,7,11-Trimethyldodeca-2,6,10-trien-1-yl)acetamide] |  | 4.5 | 4.49 |  |  |  |
| CC(C)=CCC/C(C)=C/CCC(C)=CCn1cc2c(=O)ncn(CC=C(C)CC/C=C(\C)CCC=C(C)C)c2n1 [Compound 48, 2,7-bis((6E)-3,7,11-trimethyldodeca-2,6,10-trien-1-yl)-2,7-dihydro-4H-pyrazolo[3,4-d]pyrimidin-4-one] | < 7 | 5.5 | 5.47 |  |  |  |
| CC(C)=CCC/C(C)=C/CC/C(C)=C/CC/C(C)=C/Cn1cnc2ncnc(Cl)c21 [Compound 20, 6-chloro-7-((2E,6E,10E)-3,7,11,15-tetramethylhexadeca-2,6,10,14-tetraen-1-yl)-7H-purine] |  | 11 | 11 |  |  |  |
| CC(C)=CCC/C(C)=C/CCC(C)=CCNC=O [Compound 75, N-((6E)-3,7,11-trimethyldodeca-2,6,10-trien-1-yl)formamide] |  |  |  |  |  | inactive |
| CC(C)=CCC/C(C)=C/Cn1cnc2c(Cl)ncnc21 [Compound 15, (E)-6-Chloro-9-(3,7-dimethylocta-2,6-dien-1-yl)-9H-purine] |  | 12.2 | 12.2 |  |  |  |
| CC(C)=CCC/C(C)=C/CCC(C)=CCn1cnc(N(C)C)c2ncnc1-2 [Compound 12, N,N-dimethyl-3-((6E)-3,7,11-trimethyldodeca-2,6,10-trien-1-yl)-3H-purin-6-amine] |  | 14 |  |  |  |  |
| CC(C)=CCC/C(C)=C/CC/C(C)=C/CC/C(C)=C\Cn1cnc2ncnc(Cl)c21 [Compound 21, 6-chloro-7-((2Z,6E,10E)-3,7,11,15-tetramethylhexadeca-2,6,10,14-tetraen-1-yl)-7H-purine] |  | 19.1 | 19.1 |  |  |  |
| CC(C)=CCC/C(C)=C/CC/C(C)=C/CC/C(C)=C/CNC=O [Compound 77, N-((2E,6E,10E)-3,7,11,15-tetramethylhexadeca-2,6,10,14-tetraen-1-yl)formamide] |  | 41.8 | 41.8 |  |  |  |
